Laboratory results from patent publication US20160215348A1, “GENE EXPRESSION BIOMARKERS AND THEIR USE FOR DIAGNOSTIC AND PROGNOSTIC APPLICATION IN PATIENTS POTENTIALLY IN NEED OF HDAC INHIBITOR TREATMENT” (4SC AG, priority 2013, published 2016).

Tested on: HDAC
Assay: Cellular HDAC enzyme activity in patients' whole blood (Boc-K(Ac)-AMC), inhibition vs pre-dose
Type: in vivo, human
Settings: SAPHIRE
Method: Samples were obtained and gene expressions were determined with the methods as described herein below. Whole blood was incubated for 2 h at 37° C. with fluorescent HDAC substrate Boc-K(Ac)-AMC. After the lysis of erythrocytes remaining cells were stored at −80° C. HDAC activity was determined by fluorimetric analysis using a FLUOstar OPTIMA plate reader, where cells were incubated with a defined developer reagent (containing trypsin and lysis buffer) which leads to cell lysis and generation of a fluorophore from the deacetylated substrate. Finally inhibition of HDAC activity compared to pre-dose levels was calculated.
• Labelled 15 ml tubes (e.g. PP tubes, e.g. Falcon® tubes) • Labelled 2 ml tubes (e.g. PP tubes) • Erythrocyte Lysis buffer (Qiagen 79217) (stored at RT until use) • 40 mM Boc-K(Ac) AMC Stock in DMSO (Bachem: 1-1875) (stored at −80° C. until use)
• 1) Add 1 ml citrate blood into a 15 ml labelled tube. • 2) Add 5 μl 40 mM Boc-K(Ac) AMC to 1 ml citrate blood (final concentration: 200 μM Boc-K(Ac) AMC). • 3) Incubate for 2 h in an incubator (37° C.). • 4) Add 5 fold volume (5 ml) of 4° C. cold erythrocyte lysis buffer (EL buffer, Qiagen 79217). • 5) Mix briefly on a shaker. • 6) Incubate on ice for at least 15 min; mix two times in between on a plate shaker. • 7) Add 7 ml of 4° C. […]

CN(C)Cc1ccc(S(=O)(=O)n2ccc(/C=C/C(=O)NO)c2)cc1 [resminostat, (E)-3-(1-(4-((dimethylamino)methyl)phenylsulfonyl)-1H-pyrrol-3-yl)-N-hydroxyacrylamide] was tested, and the “Inhibition of HDAC enzyme activity (median)” value (2 h post-dose, both dose groups (600 mg, 800 mg), vs pre-dose) was at most 93% and the “Inhibition of HDAC enzyme activity” value (day 8, 800 mg dose group, wide range of individual values) was “up to 41%”.
